# Tests used:
# mouse podocyte cell line = test: VSIG4 expression in podocytes (mRNA by PCR, protein by Western blot); assay type: cell-based
# Protocol: The mouse podocyte cell line was mixed with 10% heat inactivated fetal bovine serum, 100 IU/mL of penicillin, and […] of streptomycin in RPMI culture medium and cultured in a humid atmosphere in the presence of 5% CO2 at 37° C. To evaluate VSIG4 expression, low glucose (LG, 5.5 mM) and high glucose (HG, 55 mM), 100 nM angiotensin II, 1.0 μg/mL and 3.0 μg/mL of Adriamycin were treated. The medium in a plate in which cells are being cultured was removed and RNA was extracted using Trizol (Life Technologies, Gaithersburg, MD, USA). Reverse transcription (RT) was performed using a cDNA synthesis kit (Applied biosystems, Roche Inc., Foster City, CA, USA), mRNA expression was evaluated using polymerase chain reaction (PCR), and the expression level was corrected with β-actin or GAPDH. Proteins obtained by treating cell lysates with RIPA buffer were quantified, and 20 μg of protein was separated using 8-15% SDS-PAGE. After separation of the protein by electrophoresis using 10% SDS-PAGE, the protein was transferred to a PVDF membrane (Millipore corporation bedford, USA) using a PAGE transfer buffer (Amersham Life Science, Arlington Heights, IL) at 270 mA for 4 hours, reacted overnight at 4° C. using a blocking solution (5% skim milk), and washed with Tris buffered saline with Tween-20 (TBS-T buffer; 10 mM Tris-Cl, pH 7.8, […] Nacl, 0.05% Tween-20). […]
# HK2 cells = test: VSIG4 expression in HK2 renal tubular cells (mRNA by PCR, protein by Western blot); assay type: cell-based, human; conditions: renal tubular cells treated with TGF-β (10 ng/mL recombinant); FIG. 3
# Protocol: HK2 cells (A TCC, Manassan, VA), immortalized human renal proximal tubule cells, were cultured by adding, in a DMEM medium (Mediatech Inc., Corning Subsidiary, Manassas, VA), 10% heat inactivated fetal bovine serum (Tissue Culture Biologicals, Tulare, CA, USA), 100 IU/mL of penicillin, and […] of streptomycin in a humid atmosphere in the presence of 5% CO2 at 37° C.
# […] The purchased scrambled siRNA (control siRNA) and VSIG4 siRNA (z391g, Santa Cruz Biotechnology, Santa Cruz, CA) were each transfected by 200 MOI to suppress VSIG4 expression in HK2 cells.
# To inhibit TGF-β expression, TGF-β-siRNA (Santa Cruz Biotechnology, Santa Cruz, CA, USA) was used, and 10 ng/mL of recombinant TGF-β (R&D systems, Minneapolis, MN, USA) was used for TGF-β stimulation experiment.
# The medium in a plate in which cells are being cultured was removed and RNA was extracted using Trizol (Life Technologies, Gaithersburg, MD, USA). Reverse transcription (RT) was performed using a cDNA synthesis kit (Applied biosystems, Roche Inc., Foster City, CA, USA), mRNA expression was evaluated using polymerase chain reaction (PCR), and the expression level was corrected with β-actin or GAPDH.
# Proteins obtained by treating cell lysates with RIPA buffer were quantified, and 20 μg of protein was separated using 8-15% SDS-PAGE. […]
# Balb/c male mice = test: Adriamycin-induced renal injury model; conditions: 11 mg/kg once into tail vein, 4 weeks, FIG. 8
compound,measurement,setting,value
"angiotensin II (DRVYIHPF; Angiotensin-2; UniProt P01019 25-32, looked up) [main substance of kidney damage used to stimulate podocytes]",expression of VSIG4 mRNA and protein,"mouse podocyte cell line; podocytes stimulated with high glucose (55 mM) and angiotensin II (100 nM), compared to low glucose, FIG. 4",increased
TGF-β,VSIG4 expression,HK2 cells,increased
COc1cccc2c1C(=O)c1c(O)c3c(c(O)c1C2=O)C[C@@](O)(C(=O)CO)C[C@@H]3O[C@H]1C[C@H](N)[C@H](O)[C@H](C)O1 [Adriamycin],expression of VSIG4 mRNA and protein,"mouse podocyte cell line; podocytes, 1.0 μg/mL and 3.0 μg/mL, 12 hours and 24 hours, FIG. 9",increased over time
same,VSIG4 protein expression (urine),"Balb/c male mice; 24-hour urine, ELISA",significantly increased
same,albuminuria,Balb/c male mice; 24-hour urine,significantly increased
same,VSIG4 mRNA expression in kidney tissues,Balb/c male mice,significantly increased
